The record followed here is PubChem BioAssay (NCI).

What all share (assay): DTP human tumour cell line panel, 48 h
In test [1] the test system is UO-31 renal.
Test [2] deals with OVCAR-8 ovarian.
Test [3] has as its system HT29 colon.
Test [4] has as its system T-47D breast.
Test [5] concerns NCI-H522 lung.
Test [6] relates to SK-MEL-28 melanoma.
The test system of test [7] is SK-OV-3 ovarian.
The test system of test [8] is TK-10 renal.
The subject of test [9] is NCI-H460 lung.
Test [10] deals with IGROV1 ovarian.

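Where inhibition never reached the appropriate level, the endpoint shown equals the highest concentration tested. Otherwise, values were interpolated linearly from a five-concentration, 48-hour dose response in 96-well plates. GI50 is the concentration that inhibits growth by half. TGI is the concentration that stops growth completely.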

As to `N#Cc1ccccc1C#C/C=C\C#Cc1ccccc1N`, the GI50 in [1] was 4.79 µM; in [2], 7.27 µM; in [3] it was 4.38 µM; in [4], 8.72 µM; in test [5] it was 2.94 µM; in test [6] it was 9.78 µM. For the same compound, the GI50 in test [7] is 3.22 µM; in test [8], 5.02 µM; in test [9], 5.43 µM. For the same compound, the TGI in [1] was above 25.7 µM; in [2] it was above 30 µM; in test [3] it was above 100 µM; in test [4], above 100 µM; in [6], above 74 µM; in test [7], above 100 µM. The figures for the TGI in test [8] and in test [9] were above 49.3 µM and above 100 µM, respectively.

For `CC1=CC(O)C(C(O)(C(F)(F)F)C(F)(F)F)C(C)(C)C1` (stereo not given), the TGI in test [2] was above 10 µM; in test [10] it was 0.986 µM; in test [3] it was above 10 µM; in test [4], above 10 µM; in test [5] it was above 10 µM; in [6] it was above 10 µM. Further, the TGI in test [7], in [8] and in test [9] was above 10 µM each time.

Consider `O=C1C2Cc3c(n(C(=O)c4ccccc4)c4ccccc34)CC2C(=O)N1c1ccc(Nc2ccc(N3C(=O)C4Cc5c(n(C(=O)c6ccccc6)c6ccccc56)CC4C3=O)cc2)cc1` (stereo not given), for which the TGI in test [1], in test [2], in test [10], in [3], in test [4] and in test [5] was above 100 µM throughout. Also, the TGI in [6], in test [7], in [8] and in test [9] was above 100 µM throughout.

As to `O=C(Cc1csc2nc(-c3ccc(Cl)cc3)cn12)N/N=C/c1ccccc1O`, the GI50 in test [1] is 0.504 µM; in [2], 3.01 µM; in test [10], 3.05 µM; in test [4], 4.16 µM; in test [6], 5.5 µM; in test [7] it was 5.05 µM. For the same compound, the GI50 in test [9] is 1.39 µM. Also, the concentration for total growth inhibition (TGI) in [1] is 43.9 µM; in test [2], 78.9 µM; in test [10], above 100 µM; in [4], above 100 µM; in [6], above 100 µM; in test [7], above 100 µM. The TGI in test [9] was above 100 µM.

As for `Nc1nnc(CCC(=O)Nc2cc(Cl)ccc2Cl)n1N`, the TGI in test [1], in test [2], in test [10], in test [3], in test [5] and in test [6] was above 100 µM each time. In addition, the TGI in [7], in test [8] and in test [9] was above 100 µM in each case.

On to `Clc1ccc(Nc2nc(Nc3ccccc3)nc(Nc3ccc(-c4cc(-c5ccc(Cl)cc5)on4)cc3)n2)cc1`, for which the GI50 in [2] is 21.4 µM; in [10], 12.7 µM; in [3], 10.8 µM; in [4], 8.94 µM; in [5], 16.2 µM; in test [6] it was 40.3 µM. In addition, the figures for the GI50 in test [7], in test [8] and in [9] were 29 µM, 19.2 µM and 17.9 µM, respectively. Moreover, the TGI in [2] is above 100 µM; in test [10] it was above 100 µM; in test [3], 25.5 µM; in test [4], above 100 µM; in test [5] it was 36.7 µM; in test [6] it was above 100 µM. In addition, the TGI in test [7], in [8] and in test [9] was above 100 µM each time.

With `O=C(O)C(O)C(O)C(O)C(O)C(=O)O` (stereo not given), the TGI in test [1], in test [2], in [10], in test [3], in test [4] and in [5] was above 100 µM throughout. Besides, the TGI in test [6], in [7] and in [9] was above 100 µM in each case.

`Cn1c2[n+](c3nc(N)[nH]c(=O)c31)C1OC(C2)C(O)C1O` (stereo not given): the TGI in test [1], in test [2], in [10], in test [3], in test [5] and in [6] was above 100 µM in each case. Besides, the concentration for total growth inhibition (TGI) in [7] and in test [8] was above 100 µM throughout.

`O=C(Nc1ccc(-n2ccc3c(NC(=O)c4ccccc4)nccc32)cc1)Nc1cccc(C(F)(F)F)c1`: the GI50 in [1] is 13.4 µM; in [2], 4.35 µM; in test [10], 10 µM; in [3], 1.85 µM; in [4], 11.1 µM; in [5], 1.69 µM. Besides, the results for the GI50 in [6], in [8] and in [9] were 7.36 µM, 3.87 µM and 2.74 µM, respectively. For the same compound, the TGI in test [1] was found to be 31.7 µM; in test [2], 17.9 µM; in test [10], 30.9 µM; in test [3] it was 4.93 µM; in test [4], 31 µM; in test [5], 15.3 µM. In addition, the TGI came to 21 µM in test [6], 18.8 µM in test [8] and 13.4 µM in [9].

In the case of `O=C1/C(=C/c2[nH]ncc2-c2ccc(Cl)cc2)C(=O)N(c2ccccc2)C1c1ccccc1` (stereo not given), the TGI in [1] came to 58.7 µM; in [10] it was 45.1 µM; in [3], 27.5 µM; in [4], 17.3 µM; in test [5], 27.2 µM; in [6], 50.4 µM. In addition, the TGI in test [7] is 56.3 µM; in test [8], above 100 µM; in test [9], above 100 µM.

Consider `O/C(=C\c1nc2ccccc2nc1/C=C(\O)c1ccc(F)cc1)c1ccc(F)cc1`, for which the TGI in test [1], in [2], in test [10], in test [3], in test [4] and in test [5] was above 100 µM each time. For the same compound, the TGI in [6], in test [8] and in test [9] was above 100 µM in each case.
